Experimental data from paper PMC12040169 (PLOS Biology, 2025).

Experiment: in vitro
Conditions: human, hela cells, % viability

| SMILES | viability at 28.5 h, 10 µM [%] |
| --- | --- |
| COCCNCCOc1c(Cl)cc(C)cc1Br [CBK265087G] | 113 |
| Cc1cc(Cl)c(OCCN2CCC(C)CC2)c(Br)c1 [CBK265088G] | 78.3 |
| Cc1ccc(NC(=O)c2ccccc2OCC(=O)NC23CC4CC(CC(C4)C2)C3)cc1Cl [CBK265091] | 101 |
| COCCCNCCSc1ccc(Cl)cc1 [CBK265093] | 95 |
| Cc1cc(Br)ccc1OCC(=O)O/N=C(\N)Cc1ccc([N+](=O)[O-])cc1 [CBK265095] | 99.8 |
| Cn1c(SCC(=O)Nc2ccccc2[N+](=O)[O-])nc2ccccc2c1=O [CBK265096] | 106 |
| Cc1cc(C(C)(C)C)ccc1OCCNCCN [CBK265097G] | 91.3 |
| Cc1cccc(N2C(=O)c3ccc(C(=O)OC(C(=O)c4ccccc4)c4ccccc4)cc3C2=O)c1 (stereo not drawn) [CBK265098] | 88.8 |
| CCOc1ccc(C(=O)NC(=S)Nc2cccc(C(=O)O)c2C)cc1Br [CBK265100] | 93.6 |
| CC(C)(c1ccccc1)c1ccc(OCCNCCN)cc1 [CBK265102] | 103 |
| CCC(C(=O)NCCCN1CCOCC1)c1ccccc1 (stereo not drawn) [CBK265103] | 116 |
| COc1ccc(C(=O)CSc2nnc(C(O)c3ccccc3)n2-c2ccccc2)cc1 (stereo not drawn) [CBK265104] | 109 |
| COc1ccccc1C(=O)Nc1sc2c(c1C(=O)NCc1ccco1)CCCC2 [CBK265105] | 100 |
| Clc1ccc(SCCOCCN2CCCCC2)cc1 [CBK265108G] | 87.3 |
| Cc1ccc(S(=O)(=O)NC(CC(=O)Nc2ccc(Br)cc2)c2ccccc2)cc1 (stereo not drawn) [CBK265110] | 93.3 |
| Cc1ccc2nc(O)cc(C(=O)OCC(=O)c3cccc([N+](=O)[O-])c3)c2c1 [CBK265115] | 94.1 |
| CCN1C(=O)/C(=C/c2cc3c(cc2Cl)OCO3)NC1=S [CBK265117] | 96.5 |
| CC(C)(C)CC(C)(C)N=C(S)Nc1ccc2nc(-c3ccccn3)c(-c3ccccn3)nc2c1 [CBK265118] | 91 |
| CCOc1ccc(S(=O)(=O)N2CCCCC2)cc1-c1nc2c(C(C)(C)C)nn(C)c2c(=O)[nH]1 [CBK265119] | 113 |

| SMILES | viability at 28.5 h, 10 µM [%] |
| --- | --- |
| O=C1CC(Cc2ccccc2)C(=O)N1CCCn1ccnc1 (stereo not drawn) [CBK265123G] | 97.4 |
| C/C(=C\C(=O)Nc1ccc(O)cc1C(=O)O)c1ccccc1 [CBK265125] | 115 |
| CN(CC(=O)NCc1ccccn1)S(=O)(=O)c1ccc(Br)cc1 [CBK265127] | 94.4 |
| Cc1ccc2nc(-c3ccccc3)c(CC(=O)O)c(C(=O)O)c2c1 [CBK265128] | 87.3 |
| O=C1CC(C(=O)Nc2ncccn2)C(c2ccccc2)O1 (stereo not drawn) [CBK265130] | 106 |
| O=C(O)c1ccccc1C(=O)Nc1ccc(Oc2cccc3ccccc23)cc1 [CBK265131] | 84.9 |
| O=C(CCN1C(=O)c2ccc([N+](=O)[O-])cc2C1=O)Nc1ccccc1-c1ccccc1 [CBK265134] | 103 |
| CSCCC(C(=O)O)N1C(=O)c2ccc(C(=O)O)cc2C1=O (stereo not drawn) [CBK265135] | 110 |
| O=C(Nc1cccc([N+](=O)[O-])c1)c1ccc2nc(-c3ccccn3)c(-c3ccccn3)nc2c1 [CBK265137] | 101 |
| CCN1C(=O)/C(=C/c2cc(Br)ccc2OCc2cccc([N+](=O)[O-])c2)NC1=S [CBK265138] | 93.6 |
| COc1cc(/C=C2/NC(=O)N(c3ccccc3)C2=O)ccc1OCc1ccc(C(=O)O)cc1 [CBK265139] | 84.6 |
| Cc1ccc(S(=O)(=O)NCCNc2ccc([N+](=O)[O-])cc2C(F)(F)F)cc1 [CBK265140] | 90.6 |
| Cc1ccc(S(=O)(=O)N(CC(=O)N2CCN(C)CC2)Cc2ccc(Cl)cc2Cl)cc1 [CBK265144] | 100 |
| CCOC(=O)C(C)N1C(=O)S/C(=C/c2cc(C)n(-c3ccncc3)c2C)C1=O (stereo not drawn) [CBK265145] | 99.9 |
| Cc1cccc(/C=C2/SC(=S)N(CC(=O)O)C2=O)n1 [CBK265146] | 82.9 |
| CCCc1cc(O)nc(SCC(=O)Nc2ccc(Cl)cc2Cl)n1 [CBK265147] | 83.7 |
| CCOC(=O)N1CCN(Cn2nc(COc3ccccc3)n(C)c2=S)CC1 [CBK265148] | 97.4 |
| O=C(O)c1cc(NC(=O)c2ccc(NC(=O)c3ccco3)cc2)cc(C(=O)O)c1 [CBK265149] | 111 |
| CCOC(=O)c1ccccc1OC(=O)c1ccc2c(c1)C1C=CCC1C(C(=O)O)N2 (stereo not drawn) [CBK265155] | 101 |

| SMILES | viability at 28.5 h, 10 µM [%] |
| --- | --- |
| Cc1ccc(S(=O)(=O)N(CC(=O)Nc2ccc3c(c2)OCCO3)Cc2ccccc2F)cc1 [CBK265157] | 83.3 |
| O=C(NCCCO)Nc1ccc2nc(-c3ccco3)c(-c3ccco3)nc2c1 [CBK265161] | 92.4 |
| CCOC(=O)C(C)N1C(=O)S/C(=C/c2cc(Cl)c(OCC(=O)O)c(Br)c2)C1=O (stereo not drawn) [CBK265163] | 99.9 |
| Cc1cccc(CN(CC(=O)Nc2ccc(F)cc2F)S(=O)(=O)c2ccc(Cl)cc2)c1 [CBK265164] | 84.9 |
| CCN(CC)CCN1C(=O)C(O)=C(C(=O)c2ccc(Cl)cc2)C1c1cccc(Br)c1 (stereo not drawn) [CBK265165] | 112 |
| CCCCc1cc(=O)oc2cc(OC(C)C(=O)O)c(Cl)cc12 (stereo not drawn) [CBK265166] | 95.7 |
| C/C(=C1/SC(=S)N(c2cccc(C(=O)O)c2)C1=O)c1cccc([N+](=O)[O-])c1 [CBK265168] | 100 |
| CC1CCN(S(=O)(=O)c2ccc(Cl)c(C(=O)Nc3ccc(C(=O)O)cc3)c2)CC1 [CBK265170] | 111 |
| COc1ccc(S(=O)(=O)Nc2ccc(C)cc2)cc1C(=O)Nc1ccc(C)cc1 [CBK265172] | 94.7 |
| COc1ccc([N+](=O)[O-])cc1COc1ccc2c(C(F)(F)F)cc(=O)oc2c1 [CBK265173] | 96.4 |
| NC(=O)C1CCN(C2=NC(=O)/C(=C/c3cn(-c4ccccc4)nc3-c3ccc(F)cc3)S2)CC1 [CBK265175] | 106 |
| COc1ccccc1Oc1ccc(S(=O)(=O)N2CCOCC2)cc1S(=O)(=O)N1CCOCC1 [CBK265176] | 97.2 |
| Cc1ccc(C(=O)C(OC(=O)c2ccc(-c3nnc(-c4ccccc4)o3)cc2)c2ccccc2)cc1 (stereo not drawn) [CBK265177] | 82.7 |
| COc1ccc(-c2nn(-c3ccccc3)cc2/C=C2\SC(N3CCC(C(N)=O)CC3)=NC2=O)cc1 [CBK265178] | 105 |
| NC(=O)C1CCN(C2=NC(=O)/C(=C/c3cn(-c4ccccc4)nc3-c3cccs3)S2)CC1 [CBK265179] | 97.3 |
| CCc1cc(=O)oc2cc(OCC(=O)O)c(Cl)cc12 [CBK265182] | 93.9 |
| O=C(O)c1cccc(NC(=O)c2ccc(S(=O)(=O)N3CCCCC3)cc2)c1 [CBK265185] | 86.1 |
| O=C(O)CCC(=O)Nc1ccc(Br)c2cccnc12 [CBK265186] | 105 |
| O=C(O)CSc1nc2ccc([N+](=O)[O-])cc2[nH]1 [CBK265192] | 86.9 |

Same assay, conditions: human, hela cells, % viability, bulk resorufin, single well

| SMILES | viability at 28.5 h, 10 µM [%] |
| --- | --- |
| COc1cc(/C=C2\C(=O)NC(=S)N(c3cccc(C)c3C)C2=O)ccc1OC(C)C(=O)O (stereo not drawn) [CBK265132] | 98.7 |
| COc1cc(/C=C2/C(=O)NC(=O)N(c3ccc(C)c(Cl)c3)C2=O)ccc1OC(C)C [CBK265156] | 118 |
| O=C1NC(=O)C(=CNCCN2CCN(C(=O)c3ccccc3)CC2)C(=O)N1 [CBK265190] | 90.5 |
